Laboratory results from BigSolDB 2.1.

Cl.OC(CCCN1CCCCC1)(c1ccccc1)c1ccccc1
solubility (mole fraction)
Details | 278.15 K | 283.15 K | 288.15 K | 293.15 K | 298.15 K | 303.15 K | 308.15 K | 313.15 K | 318.15 K | 323.15 K
in DMAc | 0.00189 | 0.00221 | 0.00254 | 0.00305 | 0.00357 | 0.00407 | 0.00457 | 0.00525 | 0.00596 | 0.00697
in DMF | 0.00285 | 0.00316 | 0.00357 | 0.00408 | 0.00466 | 0.00515 | 0.00615 | 0.00688 | 0.00811 | 0.00923
in DMSO | – | – | – | 0.0121 | 0.0134 | 0.0148 | 0.0167 | 0.019 | 0.0213 | 0.0242
in NMP | 0.00427 | 0.00492 | 0.0056 | 0.00616 | 0.00725 | 0.00826 | 0.00921 | 0.0104 | 0.012 | 0.0141
in acetic acid | – | – | – | 0.00434 | 0.00601 | 0.00965 | 0.016 | 0.0263 | 0.0428 | 0.0632
in acetonitrile | 0.000127 | 0.00016 | 0.000224 | 0.000306 | 0.000412 | 0.000497 | 0.000623 | 0.000747 | 0.000892 | 0.00105
in ethanol | 0.00161 | 0.00196 | 0.00227 | 0.00275 | 0.00336 | 0.00405 | 0.00485 | 0.00585 | 0.00706 | 0.00867
in methanol | 0.00929 | 0.0109 | 0.0127 | 0.0152 | 0.0177 | 0.0207 | 0.0245 | 0.0285 | 0.0337 | 0.0397
in n-butanol | 0.000548 | 0.000685 | 0.000907 | 0.00113 | 0.00137 | 0.00169 | 0.00206 | 0.00247 | 0.00304 | 0.00398
in n-pentanol | 0.000228 | 0.000359 | 0.000562 | 0.00075 | 0.000981 | 0.00121 | 0.00164 | 0.00212 | 0.00265 | 0.00327
in n-propanol | 0.00115 | 0.00151 | 0.00199 | 0.0025 | 0.00255 | 0.00309 | 0.00364 | 0.00454 | 0.00575 | 0.00708
in water | 0.000935 | 0.001 | 0.00112 | 0.00125 | 0.00135 | 0.0015 | 0.00165 | 0.00173 | 0.00193 | 0.00216
